Assays:
[1] = Cytotoxicity against MDCK cells assessed as changes in cell morphology; assay type: cell-based, Canis lupus familiaris; conditions: dog
Influenza A virus = experiment: Antiviral activity against influenza A/Hong Kong/7/87 (H3N2) in MDCK cells assessed as inhibition of virus-induced cytopathic effect by MTS assay; assay type: functional, organism-based
Trypanosoma brucei = experiment: Antiparasitic activity against Trypanosoma brucei 221 blood stream form at pH 7.4; assay type: functional, organism-based

SMILES	MCC [1]	EC50 (Influenza A virus; Influenza A virus, H3N2, MDCK)	IC50 (Trypanosoma brucei)	EC50 (Influenza A virus; mdck)	IC90 (Trypanosoma brucei)
NC12CC3CC(CC(C3)C1)C2 [AMANTADINE]	> 100 µM	1.98 µM	> 130 µM	–	–
CN1CCC12C1CC3CC(C1)CC2C3 (centres undefined)	50 µM	0.59 µM	> 25 µM	–	–
C1C2CC3CC1CC(C2)C31CN1 (centres undefined)	25 µM	> 5 µM	> 30 µM	–	–
CN1CCC2(CC1)C1CC3CC(C1)CC2C3	–	–	> 20 µM	–	–
C1CC2(CCN1)C1CC3CC(C1)CC2C3.Cl	17 µM	0.16 µM	–	–	–
NC(=O)c1ncn([C@@H]2O[C@H](CO)[C@@H](O)[C@H]2O)n1 [RIBAVIRIN]	20 µM	–	–	8.68 µM	–
C1CC2(N1)C1CC3CC(C1)CC2C3 (centres undefined)	250 µM	0.36 µM	–	–	–
CN1CC12C1CC3CC(C1)CC2C3 (centres undefined)	23 µM	> 4.5 µM	–	–	–
O=C1NC(=O)C2(C(=O)N1)C1CC3CC(C1)CC2C3	–	–	20 µM	–	–
C1C2CC3CC1CC(C2)C31CNC1	113 µM	0.33 µM	–	–	–
CN1CCC2(CC1)C1CC3CC(C1)CC2C3.Cl	4 µM	4.3 µM	–	–	–
C1CC2(CCN1)C1CC3CC(C1)CC2C3	–	–	5.28 µM	–	9.99 µM
CC(N)C12CC3CC(CC(C3)C1)C2 (centres undefined) [RIMANTADINE]	> 100 µM	0.362 µM	7.04 µM	–	14 µM
